Measured values from patent publication US5508419A, “Substituted triazoles as angiotensin II inhibitors” (Ortho Pharmaceutical Corporation, priority 1994, dated 1996).

Key:
[1] = molecular target: T1, angiotensin II receptor (angiotensin II-induced vasoconstriction in in vitro aortic rings) (Oryctolagus cuniculus, UniProt P34976); test: Inhibition of Angiotensin II Dose-Response in Rabbit Thoracic Aorta; type: cell-based, rabbit (New Zealand white); conditions: for Kb / pA2: rabbit thoracic aorta, negative logarithm of antagonist concentration causing 2-fold shift to the right of agonist potency; for Kb: read-out: pA2 (converted); for inhibition at 10 µM: read-out: % Inhib. @ 10 uM
T1 construct: thoracic aorta gently dissected free from the aortic root to the level of the diaphragm; from tissue; host or cells: rabbit (New Zealand white) thoracic aorta rings
T1 sequence (P34976 1-359): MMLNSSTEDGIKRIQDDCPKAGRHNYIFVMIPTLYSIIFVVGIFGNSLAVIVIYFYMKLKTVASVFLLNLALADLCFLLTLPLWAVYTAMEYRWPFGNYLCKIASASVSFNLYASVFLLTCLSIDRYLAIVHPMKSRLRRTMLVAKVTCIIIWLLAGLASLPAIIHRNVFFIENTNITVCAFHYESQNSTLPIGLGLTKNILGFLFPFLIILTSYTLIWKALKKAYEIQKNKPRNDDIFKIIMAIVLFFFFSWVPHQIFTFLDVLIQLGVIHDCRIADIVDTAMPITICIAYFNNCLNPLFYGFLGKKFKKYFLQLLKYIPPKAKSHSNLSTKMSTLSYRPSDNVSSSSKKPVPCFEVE
Text: Inhibition of Angiotensin II Dose-Response in Rabbit Thoracic Aorta
Purpose: To identify competitive receptor antagonists of an angiotensin II-activity, 1 activity i.e., angiotensin II-induced vasoconstriction in in vitro aortic rings.
Procedure: 1.8 to 2.3 kg New Zealand white rabbits are sacrificed with an intravenous sodium pentobarbital overdose and the thoracic aorta gently dissected free from the aortic root to the level of the diaphragm, into ice cold Krebs bicarbonate buffer. The aorta is gently freed of clots and adventitia and cleanly cut with a scalpel into 5 mm segments. Each dng is suspended from a Gould isotonic force transducer in a tissue bath containing 15 mL oxygenated Krebs bicarbonate buffer regulated at 37° C. Initial tension is adjusted to 4.0 g and equilibrated over three 20-min wash periods to achieve a baseline tension of 3.0 g. Graded angiotensin II doses are given cumulatively to achieve a maximal contraction. Three 20-min washes are pedormed to remove the initial angiotensin II effect. The test compound is then given at a screening concentration of 1.0×10^-5 M. After observing any effects of the test compound alone, the angiotensin II cumulative dose-response is then repeated in the presence of the test compound.
Analysis: Angiotensin II vasoconstdctor tension in grams is expressed as a percent of maximal contraction for the before and after test compound angiotensin II dose-responses. Angiotensin II ED50 and ED90 is determined from the angiotensin II dose-response curves generated before and after test compound.
Controls: Test compounds are dissolved in DMSO vehicle and DMSO vehicle alone is tested in two rings as a vehicle control in each screening experiment.
pA2 is the negative logarithm of the antagonist concentration that causes a 2-fold shift to the right (i.e. decrease) in the potency of the agonist or the negative logarithm of the antagonist concentration that cuts the potency of the agonist in half.

[2] = tested on: plasma renin activity; test: Plasma renin activity (PRA, RIA) in salt-depleted rats; type: in vivo, rat (Sprague-Dawley); conditions: after DuP-753 treatment of salt-depleted rats, 0.7 before and about 7.4 after salt depletion
[3] = tested on: angiotensin II receptor; test: Screening Potential Angiotensin II Receptor Antagonists in Salt-Depleted Normotensive Rats (blood pressure); type: in vivo, rat (Sprague-Dawley)
Description: Method; Male 350-450 g Sprague-Dawley rats are implanted with teflon microcannulae via the middle caudal artery under 20 mg/kg intravenous brevital anesthesia and permitted a 4-7 day surgical recovery period. Throughout recovery and testing animals are individually housed unrestrained in standard rat metabolism cages and receive continuous 0.5 ml/h intra-arterial 0.25N saline infusion through a spring-shielded swivelling tether connected to an infusion/blood pressure recording system to maintain arterial cannula patency. […] […] Three hours after the second furosemide dose, rats are given test compound uniformly suspended in 1% methylcellulose (n=3/dose level) or 1 mL 1% methylcellulose vehicle (n=3) orally by gavage and blood pressure is continuously recorded for 24 h using a Buxco computerized data recording system. Compound-induced changes in blood pressure are compared to concurrent vehicle control blood pressures in order to detect drug effect.
Interpretation: Prior to salt depletion, normotensive rats typically show a plasma renin activity (PRA, ng angiotensin I/mL plasma/h, RIA) of 0.7. After the salt-depletion protocol PRA values taken 3 h after the furosemide dose have risen to about 7.4.
Compounds that decrease blood pressure 10 or more mmHg (MAP) compared to concurrent control after oral dosing are considered active in this test. Maximum possible response is about -35 mmHg. […]

Structure (SMILES) | Kb [1] | inhibition at 10 µM [1] | further results
CC(C)Cc1nc(SCc2ccc(-c3ccccc3C(=O)O)cc2)nn1Cc1ccc(-c2ccccc2C(=O)O)cc1 [Compound 4, Sodium 5-isobutyl-1,3-bis-[4-(2'-carboxyphenyl)benzyl]mercapto-1,2,4-triazole] | 32.4 nM | 100% | –
CCCCCCc1nc(SCc2ccc(-c3ccccc3C(=O)OC)cc2)nn1Cc1ccc(-c2ccccc2C(=O)OC)cc1 [Compound 8, 5-Hexyl-1,3-bis-[4-(2'-carbomethoxyphenyl)benzyl]mercapto-1,2,4-triazole] | 11 nM | 100% | –
CCCCCCCc1nc(SCc2ccc(-c3ccccc3C(=O)OC)cc2)nn1Cc1ccc(-c2ccccc2C(=O)OC)cc1 [Compound 9, 5-Heptyl-1,3-bis-[4-(2'-carbomethoxyphenyl)benzyl]mercapto-1,2,4-triazole] | – | 2% | –
CCCCCc1nc(SCc2ccc(-c3ccccc3C#N)cc2)nn1Cc1ccc(-c2ccccc2C(=O)O)cc1 [Compound 12] | – | 79% | –
CCCCCc1nc(SCc2ccc(-c3ccccc3C(=O)OC)cc2)nn1Cc1ccc(-c2ccccc2-c2nn[nH]n2)cc1 [Compound 16, 3-[4-(2'-Carbomethoxyphenyl)benzyl]mercapto-5-pentyl-1-[4-(2'-tetrazolophenyl)benzyl]-1,2,4-triazole hemihydrate] | 10000 nM | – | –
CCCCCCCCc1nc(S(=O)(=O)Cc2ccc(-c3ccccc3C(=O)O)cc2)nn1Cc1ccc(-c2ccccc2C(=O)O)cc1 [Compound 38, 1-[(2'-Carboxyphenyl)benzyl]-3-[(2'-carboxyphenyl)benzylsulfonyl]-5-octyl-1,2,4-triazole hydrate] | 813 nM | 87% | –
CCCCCCCc1nc(S(=O)(=O)Cc2ccc(-c3ccccc3C(=O)O)cc2)nn1Cc1ccc(-c2ccccc2C(=O)O)cc1 [Compound 39, 1-[(2'-Carboxyphenyl)benzyl]-3-[(2'-carboxyphenyl)benzylsulfonyl]-5-heptyl-1,2,4-triazole hydrate] | 324 nM | 89% | –
CCCCc1nc(Cl)c(CO)n1Cc1ccc(-c2ccccc2-c2nn[nH]n2)cc1 [DuP-753] | – | – | plasma renin activity (PRA) [2]: about 41.4 ng angiotensin I/mL plasma/h; blood pressure change ([3]; normotensive rats that have not been salt-depleted): does not change; blood pressure decrease (mean arterial pressure, MAP) ([3]; salt-depleted rats (furosemide, low sodium diet), typical response): about 35 mmHg

The next lines start with results.

Kb [1] | inhibition at 10 µM [1] | Structure (SMILES) | further results
3.24 nM | 100% | CCCCc1nc(SCc2ccc(-c3ccccc3C(=O)O)cc2)nn1Cc1ccc(-c2ccccc2C(=O)O)cc1 [Compound 2, Disodium 5-Butyl-1,3-bis-[4-(2'-carboxyphenyl)benzyl]mercapto-1,2,4-triazole] | –
– | 100% | CCCCCc1nc(SCc2ccc(-c3ccccc3C(=O)O)cc2)nn1Cc1ccc(-c2ccccc2C(=O)O)cc1 [Compound 6, 5-Pentyl-1,3-bis-[4-(2'-carboxyphenyl)benzyl]mercapto-1,2,4-triazole] | pA2 [1]: 8.39
186 nM | 97% | CCCCCCCc1nc(SCc2ccc(-c3ccccc3C(=O)O)cc2)nn1Cc1ccc(-c2ccccc2C(=O)O)cc1 [Compound 10, 5-Heptyl-1,3-bis-[4-(2'-carboxyphenyl)benzyl]mercapto-1,2,4-triazole] | –
– | 4% | CCCCCc1nc(SCc2ccc(-c3ccccc3C(=O)OC)cc2)n(Cc2ccc(-c3ccccc3C(=O)OC)cc2)n1 [Compound 21, 5-Pentyl-2,3-bis-[4-(2'-carbomethoxyphenyl)benzyl]mercapto-1,2,4-triazole] | –
– | 100% | CCCCCc1nc(SCc2ccc(-c3ccccc3C(=O)O)cc2)n(Cc2ccc(-c3ccccc3C(=O)O)cc2)n1 [Compound 23, 5-Pentyl-2,3-bis-[4-(2'-carboxyphenyl)benzyl]mercapto-1,2,4-triazole] | pA2 [1]: 7.19
– | 1% | CCCCCCCc1nc(SCc2ccc(-c3ccccc3C(=O)OC)cc2)n(Cc2ccc(-c3ccccc3C(=O)OC)cc2)n1 [Compound 25, 5-Heptyl-2,3-bis-[4-(2'-carbomethoxyphenyl)benzyl]mercapto-1,2,4-triazole] | –
– | 48% | CCCCCCCc1nc(SCc2ccc(-c3ccccc3C(=O)O)cc2)n(Cc2ccc(-c3ccccc3C(=O)O)cc2)n1 [Compound 26] | pA2 [1]: 5.88
8.91 nM | 100% | CCCCCCc1nc(S(=O)(=O)Cc2ccc(-c3ccccc3C(=O)O)cc2)nn1Cc1ccc(-c2ccccc2C(=O)O)cc1 [Compound 40, 1-[(2'-Carboxyphenyl)benzyl]-3-[(2'-carboxyphenyl)benzylsulfonyl]-5-hexyl-1,2,4-triazole 0.5 hydrate] | –
